Results on 25 compounds are retold here after patent US10865194B2, “Therapeutically active bicyclic-sulphonamides and pharmaceutical compositions” (FONDAZIONE ISTITUTO ITALIANO DI TECNOLOGIA, priority 2017, dated 2020).

The target of the test is T1, human NAAA (Homo sapiens, UniProt Q02083).
T1 construct: expressed in transfected cells; host or cells: HEK-293 (stably transfected, G418 selection); enzyme-enriched lysate
T1 sequence (Q02083 126-359 limits assumed): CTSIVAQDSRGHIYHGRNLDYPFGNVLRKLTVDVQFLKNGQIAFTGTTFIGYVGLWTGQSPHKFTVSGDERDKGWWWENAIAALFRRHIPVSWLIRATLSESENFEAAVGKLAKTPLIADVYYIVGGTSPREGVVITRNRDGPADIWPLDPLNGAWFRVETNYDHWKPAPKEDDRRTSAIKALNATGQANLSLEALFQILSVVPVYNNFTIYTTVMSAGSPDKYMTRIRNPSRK
T1 sequence (Q02083 29-125 limits assumed): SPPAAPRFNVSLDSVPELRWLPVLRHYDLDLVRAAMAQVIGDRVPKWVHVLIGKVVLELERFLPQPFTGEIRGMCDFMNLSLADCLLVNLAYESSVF
As to the kind of experiment: In vitro human NAAA fluorogenic assay. The class given is biochemical. As to conditions: enzyme-enriched lysate of HEK-293 cells stably transfected with human NAAA; read-out: Activity h-NAAA Fluorogenic assay. The protocol:
Human recombinant proteins were obtained from HEK-293 stable overexpressing NAAA cell lines. Cells were grown in Dulbecco's modified Eagle medium (DMEM) containing 10% FBS, 1% penicillin/streptomycin, 1% glutamine and 500 μg/mL G418. To obtain membrane preparation cells were scraped off with cold phosphate-buffered saline (PBS) and collected by centrifugation (300×g, 7 min, 4° C.). Cell pellet were stored at −80° C. until protein preparation.
In Vitro Human NAAA Assay
Preparation of Enzyme-Enriched Lysate (h-NAAA).
HEK-293 cells stably transfected with the human NAAA coding sequences were used as enzyme source. Cell pellets were suspended in 20 mM Tris HCl (pH 7.4) with 0.32 M sucrose, sonicated and centrifuged at 800×g for 30 min at 4° C. Supernatants were then ultracentrifuged at 12,000×g for 30 min at 4° C. Pellets were re-suspended in PBS buffer (pH 7.4) and subjected to three freeze-thaw cycles at −80° C. The suspension was finally ultracentrifuged at 105,000×g for 1 h at 4° C., supematants were collected, protein concentration was measured and samples aliquoted and stored at −80° C. until use.
The results are summarized in Table 3 as follows, wherein +: IC50>2 μM; ++: 1.0 μM<IC50<2 μM; +++: IC50<1 μM: […]

For `Cc1n[nH]c(C)c1S(=O)(=O)N1C2CCC1CC(Oc1ccccc1)C2` [Example 01, (1R,3s,5S)-8-[(3,5-Dimethyl-1H-pyrazol-4-yl)sulfonyl]-3-phenoxy-8-azabicyclo[3.2.1]octane], the IC50 is less than 1000 nM.
The same measure for `Cc1n[nH]c(C)c1S(=O)(=O)N1C2CCC1CC(Oc1ccccc1)C2` [Example 02, (1R,3r,5S)-8-[(3,5-Dimethyl-1H-pyrazol-4-yl)sulfonyl]-3-phenoxy-8-azabicyclo[3.2.1]octane]: less than 1000 nM; for `Cc1cccc(OC2CC3CCC(C2)N3S(=O)(=O)c2c(C)n[nH]c2C)c1` [Example 04, (1R,3r,5S)-3-(3-Methylphenoxy)-8-[(3,5-dimethyl-1H-pyrazol-4-yl)sulfonyl]-8-azabicyclo[3.2.1]octane]: less than 1000 nM.
For the compound `Cc1cccc(OC2CC3CCC(C2)N3S(=O)(=O)c2c(C)n[nH]c2C)c1` [Example 05, (1R,3s,5S)-3-(3-Methylphenoxy)-8-[(3,5-dimethyl-1H-pyrazol-4-yl)sulfonyl]-8-azabicyclo[3.2.1]octane], the IC50 is more than 2000 nM.
The same measure for `Cc1n[nH]c(C)c1S(=O)(=O)N1C2CCC1CC(Oc1ccc(-c3ccccc3)cc1)C2` [Example 06, (1R,3r,5S)-3-(4-phenylphenoxy)-8-[(3,5-dimethyl-1H-pyrazol-4-yl)sulfonyl]-8-azabicyclo[3.2.1]octane]: 1000 to 2000 nM; for `Cc1ccc(OC2CC3CCC(C2)N3S(=O)(=O)c2c(C)n[nH]c2C)cc1` [Example 07, (1R,3r,5S)-3-(4-methylphenoxy)-8-[(3,5-dimethyl-1H-pyrazol-4-yl)sulfonyl]-8-azabicyclo[3.2.1]octane]: less than 1000 nM; for `Cc1ccc(OC2CC3CCC(C2)N3S(=O)(=O)c2c(C)n[nH]c2C)cc1` [Example 10, (1R,3s,5S)-3-(4-methylphenoxy)-8-[(3,5-dimethyl-1H-pyrazol-4-yl)sulfonyl]-8-azabicyclo[3.2.1]octane]: more than 2000 nM.
For `Cc1ccccc1OC1CC2CCC(C1)N2S(=O)(=O)c1c(C)n[nH]c1C` [Example 11, (1R,3s,5S)-3-(2-methylphenoxy)-8-[(3,5-dimethyl-1H-pyrazol-4-yl)sulfonyl]-8-azabicyclo[3.2.1]octane] the value was more than 2000 nM; for `Cc1ccccc1OC1CC2CCC(C1)N2S(=O)(=O)c1c(C)n[nH]c1C` [Example 12, (1R,3r,5S)-3-(2-methylphenoxy)-8-[(3,5-dimethyl-1H-pyrazol-4-yl)sulfonyl]-8-azabicyclo[3.2.1]octane], less than 1000 nM; for `Cc1n[nH]c(C)c1S(=O)(=O)N1C2CCC1CC(Oc1cnccn1)C2` [Example 13, (1R,3r,5S)-8-[(3,5-Dimethyl-1H-pyrazol-4-yl)sulfonyl]-3-pyrazin-2-yloxy-8-azabicyclo[3.2.1]octane], less than 1000 nM.
For `CCCCc1ccc(OC2CC3CCC(C2)N3S(=O)(=O)c2c(C)nn(C)c2C)cc1` [Example 14, (1R,3r,5S)-3-(4-Butylphenoxy)-8-(1,3,5-trimethylpyrazol-4-yl)sulfonyl-8-azabicyclo[3.2.1]octane], the IC50 was less than 1000 nM.
As for `CCCCc1ccc(OC2CC3CCC(C2)N3S(=O)(=O)c2cc(C)sc2C)cc1` [Example 16, (1R,3r,5S)-3-(4-Butylphenoxy)-8-[(2,5-dimethyl-3-thienyl)sulfonyl]-8-azabicyclo[3.2.1]octane], the IC50 was more than 2000 nM.
Take `CCc1ccc(OC2CC3CCC(C2)N3S(=O)(=O)c2c(C)n[nH]c2C)cc1` [Example 17, (1R,3r,5S)-3-(4-Ethylphenoxy)-8-[(3,5-dimethyl-1H-pyrazol-4-yl)sulfonyl]-8-azabicyclo[3.2.1]octane]: the IC50 was less than 1000 nM.
`Cc1n[nH]c(C)c1S(=O)(=O)N1C2CCC1CC(Oc1ccc(C(C)C)cc1)C2` [Example 18, (1R,3r,5S)-3-(4-Isopropylphenoxy)-8-[(3,5-dimethyl-1H-pyrazol-4-yl)sulfonyl]-8-azabicyclo[3.2.1]octane]: the IC50 was less than 1000 nM.
As to `CCCCc1ccc(OC2CC3CCC(C2)N3S(=O)(=O)c2c(C(C)C)n[nH]c2C)cc1` [Example 20, (1R,3r,5S)-3-(4-Butylphenoxy)-8-[(3-isopropyl-5-methyl-1H-pyrazol-4-yl)sulfonyl]-8-azabicyclo[3.2.1]octane], the IC50 was less than 1000 nM.
For `Cc1ccc(OC2CC3CCC(C2)N3S(=O)(=O)c2c(C)n[nH]c2C)c(F)c1` [Example 21, (1R,3r,5S)-3-(2-Fluoro-4-methylphenoxy)-8-[(3,5-dimethyl-1H-pyrazol-4-yl)sulfonyl]-8-azabicyclo[3.2.1]octane], the IC50 is less than 1000 nM.
For `Cc1n[nH]c(C)c1S(=O)(=O)N1C2CCC1CC(Oc1ccc3ccccc3n1)C2` [Example 22, (1R,3r,5S)-8-[(3,5-Dimethyl-1H-pyrazol-4-yl)sulfonyl]-3-(2-quinolyloxy)-8-azabicyclo[3.2.1]octane] the value was more than 2000 nM; for `Cc1n[nH]c(C)c1S(=O)(=O)N1C2CCC1CC(Oc1nc3ccccc3o1)C2` [Example 23, (1R,3r,5S)-8-[(3,5-Dimethyl-1H-pyrazol-4-yl)sulfonyl]-3-(2-benzoxazoloxy)-8-azabicyclo[3.2.1]octane], less than 1000 nM; for `COc1ccc(O[C@H]2C[C@H]3CC[C@@H](C2)N3S(=O)(=O)c2c(C)n[nH]c2C)cc1` [Example 24, (1R,3r,5S)-3-(4-Methoxyphenoxy)-8-[(3,5-dimethyl-1H-pyrazol-4-yl)sulfonyl]-8-azabicyclo[3.2.1]octane], less than 1000 nM.
The same measure for `Cc1n[nH]c(C)c1S(=O)(=O)N1C2CCC1CC(Oc1ccccn1)C2` [Example 25, (1R,3r,5S)-8-[(3,5-Dimethyl-1H-pyrazol-4-yl)sulfonyl]-3-(2-pyridiloxy)-8-azabicyclo[3.2.1]octane]: less than 1000 nM; for `CCCOc1ccc(OC2CC3CCC(C2)N3S(=O)(=O)c2c(C)n[nH]c2C)cc1` [Example 26, (1R,3r,5S)-3-(4-Propoxyphenoxy)-8-[(3,5-dimethyl-1H-pyrazol-4-yl)sulfonyl]-8-azabicyclo[3.2.1]octane]: less than 1000 nM.
The same measure for `Cc1ccc(OC2CC3CCC(C2)N3S(=O)(=O)c2c(C)n[nH]c2C)nc1` [Example 27, (1R,3r,5S)-8-[(3,5-Dimethyl-1H-pyrazol-4-yl)sulfonyl]-3-[(5-methyl-2-pyridil)oxy]-8-azabicyclo[3.2.1]octane]: less than 1000 nM; for `Cc1n[nH]c(C)c1S(=O)(=O)N1C2CCC1CC(Oc1nc3c(C)cccc3o1)C2` [Example 28, (1R,3r,5S)-8-[(3,5-Dimethyl-1H-pyrazol-4-yl)sulfonyl]-3-(2-(4-methyl)-benzoxazoloxy)-8-azabicyclo[3.2.1]octane]: more than 2000 nM; for `Cc1n[nH]c(C)c1S(=O)(=O)N1C2CCC1CC(Oc1ccc(C(F)(F)F)cc1)C2` [Example 29, (1R,3r,5S)-3-(4-Trifluoromethyl-phenoxy)-8-[(3,5-dimethyl-1H-pyrazol-4-yl)sulfonyl]-8-azabicyclo[3.2.1]octane]: less than 1000 nM.
Consider `Cc1n[nH]c(C)c1S(=O)(=O)N1C2CCC1CC(Oc1ccc(C=O)cc1)C2` [Example 30, (1R,3r,5S)-3-(4-Formyl-phenoxy)-8-[(3,5-dimethyl-1H-pyrazol-4-yl)sulfonyl]-8-azabicyclo[3.2.1]octane], for which the IC50 was less than 1000 nM.
